According to ChEMBL document CHEMBL1764984 (J Med Chem, 2011):
Converted amounts (≈) assume the structure as drawn.

Legend:
[1] = tested on: Blood; assay: Inhibition of TNFalpha-induced IL1-beta production in human whole blood after 2 to 5 hrs by ELISA; type: functional, tissue-based
[2] = molecular target: Mitogen-activated protein kinase 14 (Homo sapiens, UniProt Q16539); assay: Inhibition of human recombinant p38alpha assessed as incorporation of 33P from gamma-[33P]ATP into myelin basic protein after 30 mins by scintillation counting
[3] = Aqueous solubility of the compound in phosphate buffer at pH 6.5; type: physicochemical
[4] = Permeability of the compound from basolateral to apical side of human Caco2 cells at 10 uM after 21 days; type: ADME, cell-based; details: Caco-2, read-out: permeability
[5] = Permeability of the compound from apical to basolateral side of human Caco2 cells at 10 uM after 21 days; type: ADME, cell-based; details: Caco-2, read-out: permeability
[6] = tested on: Rattus norvegicus; assay: Inhibition of LPS-induced TNFalpha production in rat serum at 3 mg/kg, po administered 30 mins before LPS challenge measured after […] by ELISA; type: functional

Chain of Mitogen-activated protein kinase 14 (Q16539 whole entry): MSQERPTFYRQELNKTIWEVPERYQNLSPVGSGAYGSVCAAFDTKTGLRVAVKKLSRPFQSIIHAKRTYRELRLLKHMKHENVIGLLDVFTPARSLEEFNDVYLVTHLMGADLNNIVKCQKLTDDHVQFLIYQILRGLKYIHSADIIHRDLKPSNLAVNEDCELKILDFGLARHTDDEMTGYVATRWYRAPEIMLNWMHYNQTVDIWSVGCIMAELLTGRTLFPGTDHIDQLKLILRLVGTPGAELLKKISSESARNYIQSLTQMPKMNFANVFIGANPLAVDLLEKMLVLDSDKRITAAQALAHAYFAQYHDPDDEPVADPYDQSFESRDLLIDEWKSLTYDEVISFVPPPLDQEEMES

| SMILES | IC50 [1] [nM] | IC50 [2] [nM] | further results |
| --- | --- | --- | --- |
| Cn1c(=O)c(Oc2ccccc2)cc2cnc(NC3CCOCC3)nc21 | 451 |  |  |
| Cn1c(=O)c(Oc2ccc(F)cc2F)cc2cnc(NCC(C)(C)O)nc21 |  | 67 |  |
| Cn1c(=O)c(Sc2ccccc2F)cc2cnc(NC3CCOCC3)nc21 | 731 | 111 |  |
| Cn1c(=O)c(Oc2ccc(F)cc2F)cc2cnc(N[C@H]3CC[C@H](O)CC3)nc21 | 68 | 4 |  |
| CS(=O)(=O)CCn1c(=O)c(Oc2ccc(F)cc2F)cc2cnc(NC3CCOCC3)nc21 | 308 | 20 |  |
| O=c1[nH]c2nc(NC3CCOCC3)ncc2cc1Oc1ccc(F)cc1F | 84 | 18 |  |
| Cn1c(=O)c(Cc2ccc(F)cc2F)cc2cnc(NC3CCOCC3)nc21 | 713 | 40 |  |
| Cn1c(=O)c(Oc2cccc(F)c2)cc2cnc(NC3CCOCC3)nc21 | 1220 | 594 |  |
| Cn1c(=O)c(Oc2ccc(F)cc2F)cc2cnc(NC3CCS(=O)(=O)CC3)nc21 | 769 | 15 |  |
| CC(C)(O)Cn1c(=O)c(Oc2ccc(F)cc2F)cc2cnc(NC3CCOCC3)nc21 | 84 | 12 |  |
| Cn1c(=O)c(Cc2ccccc2F)cc2cnc(NC3CCOCC3)nc21 | 407 | 42 |  |
| Cn1c(=O)c(Oc2ccc(F)cc2F)cc2cnc(NCCS(C)(=O)=O)nc21 | 1490 | 223 |  |
| C[C@@H](CS(C)(=O)=O)Nc1ncc2cc(Oc3ccc(F)cc3F)c(=O)n(C)c2n1 | > 3000 |  |  |
| C[C@H](Cn1ncnn1)Nc1ncc2cc(Oc3ccc(F)cc3F)c(=O)n(C)c2n1 | 318 |  |  |
| Cn1c(=O)c(Oc2ccc(F)cc2F)cc2cnc(NC(CO)CO)nc21 | 189 | 158 |  |
| Cn1c(=O)c(Oc2ccc(F)cc2)cc2cnc(NC3CCOCC3)nc21 | 547 |  |  |
| CNc1ncc2cc(Oc3ccc(F)cc3F)c(=O)n(C)c2n1 |  | 260 |  |
| Cn1c(=O)c(Oc2ccc(F)cc2F)cc2cnc(NC(C)(C)CO)nc21 |  | 25 |  |
| Cn1c(=O)c(Oc2ccc(F)cc2F)cc2cnc(N[C@H]3CCOC3)nc21 | 373 | 31 |  |

The next lines start with results.

| IC50 [1] [nM] | IC50 [2] [nM] | SMILES | further results |
| --- | --- | --- | --- |
| 64.8 | 15 | Cn1c(=O)c(Oc2ccccc2F)cc2cnc(NC3CCOCC3)nc21 |  |
| 50 |  | C[C@H](CS(C)(=O)=O)Nc1ncc2cc(Oc3ccc(F)cc3F)c(=O)n(C)c2n1 | solubility [3]: 18 µg/mL (≈ 42.4 µM); Papp B→A at 10 µM [4]: 22.4 ×10⁻⁶ cm/s; Papp A→B at 10 µM [5]: 13.5 ×10⁻⁶ cm/s; inhibition in vivo at 3 mg/kg [6]: 88% |
| 18 | 6 | CS(=O)(=O)CCCn1c(=O)c(Oc2ccc(F)cc2F)cc2cnc(NC3CCOCC3)nc21 |  |
| 52 | 1 | CS(=O)(=O)N1CCC(n2c(=O)c(Oc3ccc(F)cc3F)cc3cnc(NC4CCOCC4)nc32)CC1 |  |
| 9 |  | C[C@@H](Cn1ncnn1)Nc1ncc2cc(Oc3ccc(F)cc3F)c(=O)n(C)c2n1 | solubility [3]: 23 µg/mL (≈ 55.5 µM); Papp B→A at 10 µM [4]: 19.7 ×10⁻⁶ cm/s; Papp A→B at 10 µM [5]: 30.1 ×10⁻⁶ cm/s; inhibition in vivo at 3 mg/kg [6]: 90% |
| 15 | 7 | O=c1c(Oc2ccc(F)cc2F)cc2cnc(NC3CCOCC3)nc2n1C[C@H](O)CO |  |
| 45 | 4 | CC(C)Nc1ncc2cc(Oc3ccc(F)cc3F)c(=O)n(C)c2n1 |  |
| 28 | 2 | N#CCn1c(=O)c(Oc2ccc(F)cc2F)cc2cnc(NC3CCOCC3)nc21 |  |
| 14 |  | O=c1c(Oc2ccc(F)cc2F)cc2cnc(NC3CCOCC3)nc2n1CCCO |  |
| 30 | 1 | CC(=O)N1CCC(Nc2ncc3cc(Oc4ccc(F)cc4F)c(=O)n(C)c3n2)CC1 | solubility [3]: 14 µg/mL (≈ 32.6 µM); Papp B→A at 10 µM [4]: 19.8 ×10⁻⁶ cm/s; Papp A→B at 10 µM [5]: 17.9 ×10⁻⁶ cm/s; inhibition in vivo at 3 mg/kg [6]: 76% |
| 15 | 1 | CCn1c(=O)c(Oc2ccc(F)cc2F)cc2cnc(NC3CCOCC3)nc21 |  |
| 13 | 9 | O=c1c(Oc2ccc(F)cc2F)cc2cnc(NC3CCOCC3)nc2n1C1CC1 |  |
| 11 | 1 | O=c1c(Oc2ccc(F)cc2F)cc2cnc(NC3CCOCC3)nc2n1C1CCS(=O)(=O)CC1 |  |
